{"source": "ChEMBL document CHEMBL5126603", "about": "“Discovery of Clinical Candidate CHF-6366: A Novel Super-soft Dual Pharmacology Muscarinic Antagonist and β2 Agonist (MABA) for the Inhaled Treatment of Respiratory Diseases” (J Med Chem, 2022)", "key": {"[1]": {"assay": "Tmax in Dunkin-Hartley guinea pig lung at 500 nmol/Kg, IT(Intratracheal) measured after 72 hrs by LC/MS-MS analysis", "type": "ADME, tissue-based, Cavia porcellus", "settings": "inhaled or intranasal"}, "[2]": {"assay": "Metabolic stability in rat plasma assessed as half life at 5 uM measured upto 120 mins by LC-MS/MS analysis", "type": "ADME, cell-free"}, "[3]": {"assay": "Metabolic stability in Dunkin-Hartley guinea pig plasma assessed as half life at 5 uM measured upto 120 mins by LC-MS/MS analysis", "type": "ADME, cell-free, Cavia porcellus"}, "[4]": {"assay": "Metabolic stability in human plasma assessed as half life at 5 uM measured upto 120 mins by LC-MS/MS analysis", "type": "ADME, cell-free"}, "Trachea [5]": {"tested_on": "Trachea", "assay": "(§1) Bifunctional antagonist activity at muscarinic M3 receptor /agonist activity at beta-2 adrenoceptor in Dunkin-Hartley guinea pig trachea assessed as inhibition of acetylcholine-induced bronchoconstriction at 0.3 nmol/Kg, IT(Intratracheal) measured after 5 mins by Konzett-Roessler methodology relative to control", "type": "functional", "settings": "Cavia porcellus"}, "[6]": {"assay": "Cmax in Dunkin-Hartley guinea pig plasma at 500 nmol/Kg, IT(Intratracheal) measured after 72 hrs by LC/MS-MS analysis", "type": "ADME, cell-free, Cavia porcellus", "set-up": "dose 500 nmol/kg, time 72 hrs, route it(Intratracheal)", "settings": "inhaled or intranasal"}, "[7]": {"assay": "In vivo agonist activity at beta-2 adrenoceptor in Dunkin-Hartley guinea pig trachea assessed as inhibition of histamine induced bronchoconstriction at 1 nmol/Kg, IT(Intratracheal) measured after 24 hr by Konzett-Roessler methodology relative to control", "type": "functional", "settings": "Cavia porcellus"}, "Trachea [8]": {"tested_on": "Trachea", "assay": "as §1, with “30” for “5”", "type": "functional", "settings": "Cavia porcellus, 0.5 h"}, "[9]": {"target": "T1, 5-hydroxytryptamine receptor 2C (Homo sapiens) (UniProt P28335)", "T1 sequence (whole entry)": "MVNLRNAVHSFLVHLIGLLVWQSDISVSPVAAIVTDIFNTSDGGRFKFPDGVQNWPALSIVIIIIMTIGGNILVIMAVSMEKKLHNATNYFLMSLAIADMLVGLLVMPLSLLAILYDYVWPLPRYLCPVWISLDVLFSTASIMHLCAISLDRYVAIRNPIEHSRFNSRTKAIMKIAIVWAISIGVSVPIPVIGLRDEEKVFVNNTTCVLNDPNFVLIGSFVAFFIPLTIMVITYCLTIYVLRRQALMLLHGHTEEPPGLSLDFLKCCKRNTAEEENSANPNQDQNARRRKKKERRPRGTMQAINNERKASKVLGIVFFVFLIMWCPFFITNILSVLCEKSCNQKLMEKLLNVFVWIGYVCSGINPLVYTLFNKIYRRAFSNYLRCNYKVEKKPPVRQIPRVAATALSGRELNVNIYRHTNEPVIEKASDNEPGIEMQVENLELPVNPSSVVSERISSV", "assay": "Inhibition of 5-HT2c (unknown origin) at 10 uM relative to control"}, "Trachea [10]": {"tested_on": "Trachea", "assay": "In vivo bifunctional antagonist activity at muscarinic M3 receptor /agonist activity at beta-2 adrenoceptor in Dunkin-Hartley guinea pig trachea assessed as time duration for inhibition of carbachol induced contraction measured […]", "type": "functional, Cavia porcellus"}, "[11]": {"assay": "Mutagenicity in Escherichia coli assessed as induction of reverse mutation by Ames test", "type": "toxicity"}, "Trachea [12]": {"tested_on": "Trachea", "assay": "as §1, with “1” for “0.3”", "type": "functional", "settings": "Cavia porcellus"}, "[13]": {"assay": "Metabolic stability in human lung S9 fraction assessed as half life at 1 uM measured after 0 to 60 mins in presence of NADPH by LC-MS/MS analysis", "type": "ADME, subcellular", "settings": "time 0-60 min"}, "[14]": {"assay": "AUClast in Dunkin-Hartley guinea pig lung at 500 nmol/Kg, IT(Intratracheal) measured after 72 hrs by LC/MS-MS analysis", "type": "ADME, tissue-based, Cavia porcellus", "settings": "in vivo, inhaled_or_intranasal"}, "Trachea [15]": {"tested_on": "Trachea", "assay": "as §1, with “1” for “0.3”, “30” for “5”", "type": "functional", "settings": "Cavia porcellus, 0.5 h"}, "[16]": {"target": "5-hydroxytryptamine receptor 2A (Homo sapiens) (UniProt P28223)", "sequence (P28223 whole entry)": "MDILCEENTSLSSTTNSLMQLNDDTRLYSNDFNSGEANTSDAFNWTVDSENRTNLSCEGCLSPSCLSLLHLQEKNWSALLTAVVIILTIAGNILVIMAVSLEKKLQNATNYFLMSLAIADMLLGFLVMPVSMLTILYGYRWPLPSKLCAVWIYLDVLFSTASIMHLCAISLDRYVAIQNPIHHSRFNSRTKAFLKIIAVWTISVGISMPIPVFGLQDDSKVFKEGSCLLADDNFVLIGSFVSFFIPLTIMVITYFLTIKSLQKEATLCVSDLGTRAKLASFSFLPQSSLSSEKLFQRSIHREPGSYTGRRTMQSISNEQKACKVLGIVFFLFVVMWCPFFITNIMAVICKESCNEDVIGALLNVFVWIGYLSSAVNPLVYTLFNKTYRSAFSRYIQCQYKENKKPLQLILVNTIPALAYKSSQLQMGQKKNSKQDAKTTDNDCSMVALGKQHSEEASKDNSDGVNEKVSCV", "assay": "Inhibition of 5-HT2a (unknown origin) at 10 uM relative to control"}, "[17]": {"assay": "Half life in Dunkin-Hartley guinea pig lung at 500 nmol/Kg, IT(Intratracheal) measured after 72 hrs by LC/MS-MS analysis", "type": "ADME, tissue-based, Cavia porcellus", "settings": "inhaled or intranasal"}, "Trachea [18]": {"tested_on": "Trachea", "assay": "as §1, with “acetylcholine induced” for “acetylcholine-induced”, “1” for “0.3”, “1 hr” for “5 mins”", "type": "functional", "settings": "Cavia porcellus"}, "[19]": {"assay": "In vivo antagonist activity at muscarinic M3 receptor in Dunkin-Hartley guinea pig trachea assessed as inhibition of acetylcholine induced bronchoconstriction at 1 nmol/Kg, IT(Intratracheal) measured after 1 hr in presence of ICI-118551 by Konzett-Roessler methodology relative to control", "type": "functional", "settings": "Cavia porcellus"}, "[20]": {"assay": "Efflux ratio of apparent permeability from basolateral to apical side over apical to basolateral side in human Caco-2 cells at 10 uM and measured after 2 hrs by LC-MS/MS analysis", "type": "ADME, cell-based"}, "[21]": {"target": "L-type calcium channel phenylalkylamine site (Homo sapiens, UniProt O60840+Q01668+Q13698+Q13936)", "assay": "Inhibition of L-type calcium channel phenylalkylamine site (unknown origin) at 10 uM relative to control", "type": "protein assay"}, "[22]": {"assay": "Metabolic stability in rat lung S9 fraction assessed as half life at 1 uM measured after 0 to 60 mins in presence of NADPH by LC-MS/MS analysis", "type": "ADME, subcellular", "settings": "time 0-60 min"}, "Trachea [23]": {"tested_on": "Trachea", "assay": "as §1, with “acetylcholine induced” for “acetylcholine-induced”, “1 hr” for “5 mins”", "type": "functional", "settings": "Cavia porcellus"}, "[24]": {"target": "5-hydroxytryptamine receptor 1B (Homo sapiens) (UniProt P28222)", "sequence (P28222 whole entry)": "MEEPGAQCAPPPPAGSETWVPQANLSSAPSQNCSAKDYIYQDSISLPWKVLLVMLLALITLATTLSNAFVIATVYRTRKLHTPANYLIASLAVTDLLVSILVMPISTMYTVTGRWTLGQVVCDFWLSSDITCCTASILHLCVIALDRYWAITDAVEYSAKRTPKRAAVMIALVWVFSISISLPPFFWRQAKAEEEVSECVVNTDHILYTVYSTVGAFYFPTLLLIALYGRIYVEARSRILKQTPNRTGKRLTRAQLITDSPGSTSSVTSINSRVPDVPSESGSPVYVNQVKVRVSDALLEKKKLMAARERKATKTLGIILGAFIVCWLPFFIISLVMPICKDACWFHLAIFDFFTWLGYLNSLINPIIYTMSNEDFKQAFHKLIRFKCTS", "assay": "Inhibition of 5-HT1B receptor (unknown origin) at 10 uM relative to control"}, "[25]": {"assay": "(§2) In vivo antagonist activity at muscarinic M3 receptor in Dunkin-Hartley guinea pig trachea assessed as inhibition of acetylcholine induced bronchoconstriction at 1 nmol/Kg, IT(Intratracheal) measured after 24 hr in presence of ICI-118551 by Konzett-Roessler methodology relative to control", "type": "functional", "settings": "Cavia porcellus"}, "[26]": {"assay": "Apparent permeability across apical to basolateral side in human Caco-2 cells at 10 uM and measured after 2 hrs by LC-MS/MS analysis", "type": "ADME, cell-based"}, "[27]": {"assay": "Metabolic stability in human hepatocytes assessed as clearance at 1 uM measured per 10^6 cells and incubated upto 90 mins by LC-MS/MS analysis", "type": "ADME, cell-based, Hepatocyte", "settings": "read-out: CLH"}, "[28]": {"assay": "Metabolic stability in rat liver microsomes assessed as clearance at 1 uM measured per mg protein incubated upto 60 mins in presence of NADPH by LC-MS/MS analysis", "type": "ADME, Microsome", "settings": "read-out: CLH"}, "[29]": {"assay": "Metabolic stability in rat hepatocytes assessed as clearance at 1 uM measured per 10^6 cells and incubated upto 90 mins by LC-MS/MS analysis", "type": "ADME, cell-based, Hepatocyte", "settings": "read-out: CLH"}, "Trachea [30]": {"tested_on": "Trachea", "assay": "as §1, with “0.1” for “0.3”, “15” for “5”", "type": "functional", "settings": "Cavia porcellus, 0.25 h"}, "[31]": {"assay": "Toxicity in INH dosed dog assessed as maximum tolerated dose measured after 7 days", "type": "organism-based, Canis lupus familiaris", "settings": "in vivo, inhaled or intranasal, time 7 day"}, "[32]": {"assay": "AUClast in Dunkin-Hartley guinea pig plasma at 500 nmol/Kg, IT(Intratracheal) measured after 72 hrs by LC/MS-MS analysis", "type": "ADME, cell-free, Cavia porcellus", "set-up": "time 72 hrs, dose 500 nmol/kg, route it(Intratracheal)", "settings": "inhaled or intranasal"}, "Trachea [33]": {"tested_on": "Trachea", "assay": "as §2, with “Bifunctional” for “In vivo”, “receptor /agonist activity at beta-2 adrenoceptor” for “receptor”, “hr” for “hr in presence of ICI-118551”", "type": "functional", "settings": "Cavia porcellus"}}, "data": [{"smiles": "Cn1nc(C(=O)OCCCCNC[C@H](O)c2ccc(O)c3[nH]c(=O)ccc23)cc1COc1cccc([C@@H](NC(=O)O[C@H]2CN3CCC2CC3)c2ccccc2)c1", "values": [{"measurement": "Tmax", "setting": "[1]", "value": 4.98, "unit": "min"}, {"measurement": "half-life at 5 µM", "setting": "[2]", "value": "< 5", "unit": "min"}, {"measurement": "half-life at 5 µM", "setting": "[3]", "value": 34, "unit": "min"}, {"measurement": "half-life at 5 µM", "setting": "[4]", "value": 20, "unit": "min"}, {"measurement": "inhibition in vivo at 0.0003 µmol/kg", "setting": "Trachea [5]", "value": 56.6, "unit": "%"}, {"measurement": "Cmax", "setting": "[6]", "value": 126, "unit": "ng/g"}, {"measurement": "inhibition in vivo at 0.001 µmol/kg", "setting": "[7]", "value": 50.1, "unit": "%"}, {"measurement": "inhibition in vivo at 0.0003 µmol/kg", "setting": "Trachea [8]", "value": 65.9, "unit": "%"}, {"measurement": "inhibition", "setting": "[9]", "value": "> 65", "unit": "%"}, {"measurement": "Time", "setting": "Trachea [10]", "value": ">225", "unit": "min"}, {"measurement": "Activity", "setting": "[11]", "value": "Non-Toxic"}, {"measurement": "inhibition in vivo at 0.001 µmol/kg", "setting": "Trachea [12]", "value": 90.1, "unit": "%"}, {"measurement": "half-life at 1 µM", "setting": "[13]", "value": "> 120", "unit": "min"}, {"measurement": "AUClast", "setting": "[14]", "value": 460361, "unit": "ng·h/g"}, {"measurement": "inhibition in vivo at 0.001 µmol/kg", "setting": "Trachea [15]", "value": 90.8, "unit": "%"}, {"measurement": "inhibition", "setting": "[16]", "value": "> 65", "unit": "%"}, {"measurement": "half-life", "setting": "[17]", "value": 49.2, "unit": "h"}, {"measurement": "inhibition in vivo at 0.001 µmol/kg", "setting": "Trachea [18]", "value": 92.4, "unit": "%"}, {"measurement": "inhibition in vivo at 0.001 µmol/kg", "setting": "[19]", "value": 84.1, "unit": "%"}, {"measurement": "efflux ratio at 2 h, 10 µM", "setting": "[20]", "value": 0.7}, {"measurement": "inhibition at 10 µM", "setting": "[21]", "value": "> 65", "unit": "%"}, {"measurement": "half-life at 1 µM", "setting": "[22]", "value": 30, "unit": "min"}, {"measurement": "inhibition in vivo at 0.0003 µmol/kg", "setting": "Trachea [23]", "value": 58.4, "unit": "%"}, {"measurement": "inhibition", "setting": "[24]", "value": "> 65", "unit": "%"}, {"measurement": "inhibition in vivo at 0.001 µmol/kg", "setting": "[25]", "value": 47.2, "unit": "%"}, {"measurement": "Papp A→B at 2 h, 10 µM", "setting": "[26]", "value": 2.4, "unit": "×10⁻⁶ cm/s"}, {"measurement": "hepatocyte CLint at 1 µM", "setting": "[27]", "value": 33, "unit": "µL/min/1e6 cells"}, {"measurement": "microsomal CLint at 1 µM", "setting": "[28]", "value": 37, "unit": "µL/min/mg"}, {"measurement": "hepatocyte CLint at 1 µM", "setting": "[29]", "value": 32, "unit": "µL/min/1e6 cells"}, {"measurement": "inhibition in vivo at 0.0001 µmol/kg", "setting": "Trachea [30]", "value": 25.1, "unit": "%"}, {"measurement": "MTD at 168 h", "setting": "[31]", "value": 0.124, "unit": "mg/kg/day"}, {"measurement": "AUC(0-t) at 72 h", "setting": "[32]", "value": 460, "unit": "ng·h/mL"}, {"measurement": "inhibition in vivo at 0.001 µmol/kg", "setting": "Trachea [33]", "value": 74.8, "unit": "%"}]}]}
